Measurements from patent publication US11834453B2, “Substituted pyrimido[5,4-d]pyrimidines as HER2 inhibitors” (Array BioPharma Inc., priority 2020, dated 2023).

Legend:
EGFR wild type (EGFR WT) = EGFR wild type (EGFR WT) (Homo sapiens (Human), UniProt P00533); assay: Cellular phosphorylation assay, EGF-stimulated EGFR phosphorylation (Y1068) in engineered NIH 3T3 cells, Odyssey imaging, Assay 5 (footnote 1); assay type: cell-based; settings: values marked with footnote 1
Procedure: NIH 3T3 cells were engineered to express ErbB2 with Exon 20 YVMA insertion (HER2-YVMA (SEQ ID NO: 2); Assay 4) or EGFR wild type (EGFR WT; Assay 5, footnote 1) with constructs obtained from GenScript and grown in DMEM supplemented with 10% fetal bovine serum and 15 μg/ml blasticidin. Cells were plated in 96-well plates at 40,000 or 45,000 cells/well for HER2-YVMA (SEQ ID NO: 2) and EGFR WT assays, respectively, and allowed to attach overnight at 37° C./5% CO2. Serially diluted compounds were added to the plates for 1 hour at 37° C./5% CO2. EGFR WT cells were stimulated with 100 ng/ml rEGF for an additional 10 minutes at 37° C./5% CO2. After compound incubation, medium was removed from the cells, which were then fixed in 3.7% formaldehyde in PBS at room temperature for 20 minutes. Following a wash with PBS, cells were permeabilized with 100% methanol at room temperature for 10 minutes. Cells were then washed with PBS/0.05% Tween-20 and blocked with Odyssey blocking buffer (LI-COR Biosciences) for at least 1 hour at room temperature. Antibodies to phosphorylated ErbB2 (Y1196, Cell Signaling #6942) or phosphorylated EGFR (Y1068, Cell Signaling #3777) and GAPDH (Millipore #MAB374) were added to the cells in blocking buffer containing 0.05% azide and incubated overnight at 4° C. After washing with PBS/0.05° i° Tween-20, the cells were incubated with fluorescently labeled secondary anti-rabbit antibody (LiCOR, IRDye 800CW #926-32211) and anti-mouse antibody (Molecular Probes, Alexa Fluor 680 #A21058) for 1 hour at room temperature in the dark. Cells were then washed and analyzed for fluorescence at both wavelengths using the Odyssey Infrared Imaging System (LI-COR Biosciences). Phosphorylated ErbB2 and EGFR signal was normalized to GAPDH signal to generate curves and calculate IC50 values.

ErbB2 WT = ErbB2 WT (Homo sapiens (Human), UniProt P04626); assay: ErbB enzyme assay (CisBio HTRF KinEASE-TK), Assay 2; assay type: biochemical
Sequence of ErbB2 WT (P04626 23-1255): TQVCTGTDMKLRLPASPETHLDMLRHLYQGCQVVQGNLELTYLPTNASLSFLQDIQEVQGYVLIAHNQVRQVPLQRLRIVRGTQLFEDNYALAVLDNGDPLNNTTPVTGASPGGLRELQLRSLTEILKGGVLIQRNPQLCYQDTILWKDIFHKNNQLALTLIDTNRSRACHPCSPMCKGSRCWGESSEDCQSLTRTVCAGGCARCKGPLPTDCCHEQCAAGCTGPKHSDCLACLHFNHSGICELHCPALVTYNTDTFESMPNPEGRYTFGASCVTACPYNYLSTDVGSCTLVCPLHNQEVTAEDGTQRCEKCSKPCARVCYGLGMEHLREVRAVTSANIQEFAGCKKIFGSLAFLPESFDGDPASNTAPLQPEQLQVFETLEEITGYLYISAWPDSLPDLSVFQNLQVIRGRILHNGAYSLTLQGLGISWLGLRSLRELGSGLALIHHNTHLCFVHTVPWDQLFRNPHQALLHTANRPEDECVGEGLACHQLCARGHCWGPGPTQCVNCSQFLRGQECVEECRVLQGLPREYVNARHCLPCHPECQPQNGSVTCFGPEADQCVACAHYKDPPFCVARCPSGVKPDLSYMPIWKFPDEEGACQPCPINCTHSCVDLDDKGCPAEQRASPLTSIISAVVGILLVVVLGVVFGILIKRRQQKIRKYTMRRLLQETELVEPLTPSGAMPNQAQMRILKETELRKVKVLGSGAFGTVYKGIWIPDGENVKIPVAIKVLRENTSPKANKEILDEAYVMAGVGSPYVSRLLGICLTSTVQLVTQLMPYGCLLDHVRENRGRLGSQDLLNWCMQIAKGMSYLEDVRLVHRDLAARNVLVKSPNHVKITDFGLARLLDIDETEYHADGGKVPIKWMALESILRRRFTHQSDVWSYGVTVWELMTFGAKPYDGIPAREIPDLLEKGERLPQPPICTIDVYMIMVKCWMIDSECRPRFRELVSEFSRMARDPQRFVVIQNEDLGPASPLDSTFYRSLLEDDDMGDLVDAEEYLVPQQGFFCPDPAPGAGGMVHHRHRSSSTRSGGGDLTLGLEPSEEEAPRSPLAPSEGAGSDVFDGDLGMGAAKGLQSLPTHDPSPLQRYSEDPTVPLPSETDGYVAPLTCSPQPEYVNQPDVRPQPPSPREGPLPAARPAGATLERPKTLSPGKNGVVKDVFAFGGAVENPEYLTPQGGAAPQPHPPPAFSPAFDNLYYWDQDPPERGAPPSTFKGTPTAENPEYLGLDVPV
Outline: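 Readout is HTRF KinEASE-TK, using Sa-XL665 and cryptate antibody for 1 h at 22 °C, as percent of control between DMSO-only (100) and pre-quenched (0) reactions. The kinase reaction runs 30 min at 22 °C with 1 mM ATP and 250 nM biotinylated TK substrate, in HEPES pH 7.4 with MgCl2 and 2% DMSO.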

EGFR = EGFR (Homo sapiens (Human), UniProt P00533); assay: ErbB enzyme assay (CisBio HTRF KinEASE-TK), Assay 3; assay type: biochemical
Outline: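 First, enzyme was reacted with compound, 1 mM ATP and 250 nM biotinylated tyrosine-kinase peptide for 30 min at 22 °C at pH 7.4. Next, streptavidin-XL665 and cryptate antibody were added for 1 h. Finally, HTRF ratios were converted to POC and fitted to yield IC50.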

[1] = biological target: ErbB2 with Exon 20 YVMA insertion (HER2-YVMA) (Homo sapiens (Human), UniProt P04626, INS775YVMA); assay: Cellular phosphorylation assay, constitutive ErbB2 phosphorylation (Y1196) in engineered NIH 3T3 cells, Assay 4; assay type: cell-based
Sequence of ErbB2 with Exon 20 YVMA insertion (HER2-YVMA) (P04626 other isoform, or with tags, fused parts or gaps ins YVMA behind 775): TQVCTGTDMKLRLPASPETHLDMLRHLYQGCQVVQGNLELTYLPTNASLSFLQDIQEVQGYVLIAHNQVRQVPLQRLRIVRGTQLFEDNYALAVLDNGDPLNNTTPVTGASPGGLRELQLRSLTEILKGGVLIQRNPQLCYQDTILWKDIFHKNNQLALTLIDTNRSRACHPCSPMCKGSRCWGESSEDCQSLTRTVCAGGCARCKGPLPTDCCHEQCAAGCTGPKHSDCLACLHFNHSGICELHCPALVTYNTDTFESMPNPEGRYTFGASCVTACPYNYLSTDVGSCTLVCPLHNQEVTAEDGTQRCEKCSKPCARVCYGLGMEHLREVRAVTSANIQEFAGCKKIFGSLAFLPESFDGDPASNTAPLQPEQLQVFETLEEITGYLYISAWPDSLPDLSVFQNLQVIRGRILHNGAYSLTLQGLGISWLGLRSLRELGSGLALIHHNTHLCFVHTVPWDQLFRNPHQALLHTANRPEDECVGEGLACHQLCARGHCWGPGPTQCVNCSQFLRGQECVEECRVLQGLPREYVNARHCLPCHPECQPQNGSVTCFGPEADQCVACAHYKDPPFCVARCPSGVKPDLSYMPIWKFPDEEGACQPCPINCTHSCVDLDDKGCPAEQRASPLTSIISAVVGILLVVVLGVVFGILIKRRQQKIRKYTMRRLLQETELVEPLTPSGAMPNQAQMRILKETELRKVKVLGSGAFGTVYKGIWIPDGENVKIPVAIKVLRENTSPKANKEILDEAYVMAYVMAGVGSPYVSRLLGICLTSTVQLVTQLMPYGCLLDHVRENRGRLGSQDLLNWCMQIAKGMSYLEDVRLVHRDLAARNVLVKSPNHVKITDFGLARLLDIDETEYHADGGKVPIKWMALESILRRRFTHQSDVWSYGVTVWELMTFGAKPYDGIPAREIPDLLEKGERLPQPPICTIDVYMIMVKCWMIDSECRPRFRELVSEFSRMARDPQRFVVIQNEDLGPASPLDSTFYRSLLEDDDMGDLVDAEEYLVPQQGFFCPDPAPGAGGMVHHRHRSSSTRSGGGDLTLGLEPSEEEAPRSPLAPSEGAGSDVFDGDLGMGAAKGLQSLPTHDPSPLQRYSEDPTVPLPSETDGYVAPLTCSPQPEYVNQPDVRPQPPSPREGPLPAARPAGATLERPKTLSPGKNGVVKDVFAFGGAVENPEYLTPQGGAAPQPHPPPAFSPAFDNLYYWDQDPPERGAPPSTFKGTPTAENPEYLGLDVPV
Outline: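 In-cell Western in NIH 3T3 cells carrying ErbB2 exon 20 YVMA insertion, with no ligand stimulation. One hour compound exposure at 37 °C before fixation and anti-pY1196 plus GAPDH staining with dual-wavelength fluorescence. IC50 derived after GAPDH normalization.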

MDR1 (P-gp) [2] = biological target: T1, MDR1 (P-gp) (Homo sapiens (Human), UniProt P08183); assay: MDR1 transfected LLC-PK1 permeability/efflux, Assay 6; settings: pig, LLC-PK1, Assay 6 Pe Ratio, efflux ratio Papp(B-A)/Papp(A-B), MDR1 transfected LLC-PK1
T1 sequence (P08183 whole entry): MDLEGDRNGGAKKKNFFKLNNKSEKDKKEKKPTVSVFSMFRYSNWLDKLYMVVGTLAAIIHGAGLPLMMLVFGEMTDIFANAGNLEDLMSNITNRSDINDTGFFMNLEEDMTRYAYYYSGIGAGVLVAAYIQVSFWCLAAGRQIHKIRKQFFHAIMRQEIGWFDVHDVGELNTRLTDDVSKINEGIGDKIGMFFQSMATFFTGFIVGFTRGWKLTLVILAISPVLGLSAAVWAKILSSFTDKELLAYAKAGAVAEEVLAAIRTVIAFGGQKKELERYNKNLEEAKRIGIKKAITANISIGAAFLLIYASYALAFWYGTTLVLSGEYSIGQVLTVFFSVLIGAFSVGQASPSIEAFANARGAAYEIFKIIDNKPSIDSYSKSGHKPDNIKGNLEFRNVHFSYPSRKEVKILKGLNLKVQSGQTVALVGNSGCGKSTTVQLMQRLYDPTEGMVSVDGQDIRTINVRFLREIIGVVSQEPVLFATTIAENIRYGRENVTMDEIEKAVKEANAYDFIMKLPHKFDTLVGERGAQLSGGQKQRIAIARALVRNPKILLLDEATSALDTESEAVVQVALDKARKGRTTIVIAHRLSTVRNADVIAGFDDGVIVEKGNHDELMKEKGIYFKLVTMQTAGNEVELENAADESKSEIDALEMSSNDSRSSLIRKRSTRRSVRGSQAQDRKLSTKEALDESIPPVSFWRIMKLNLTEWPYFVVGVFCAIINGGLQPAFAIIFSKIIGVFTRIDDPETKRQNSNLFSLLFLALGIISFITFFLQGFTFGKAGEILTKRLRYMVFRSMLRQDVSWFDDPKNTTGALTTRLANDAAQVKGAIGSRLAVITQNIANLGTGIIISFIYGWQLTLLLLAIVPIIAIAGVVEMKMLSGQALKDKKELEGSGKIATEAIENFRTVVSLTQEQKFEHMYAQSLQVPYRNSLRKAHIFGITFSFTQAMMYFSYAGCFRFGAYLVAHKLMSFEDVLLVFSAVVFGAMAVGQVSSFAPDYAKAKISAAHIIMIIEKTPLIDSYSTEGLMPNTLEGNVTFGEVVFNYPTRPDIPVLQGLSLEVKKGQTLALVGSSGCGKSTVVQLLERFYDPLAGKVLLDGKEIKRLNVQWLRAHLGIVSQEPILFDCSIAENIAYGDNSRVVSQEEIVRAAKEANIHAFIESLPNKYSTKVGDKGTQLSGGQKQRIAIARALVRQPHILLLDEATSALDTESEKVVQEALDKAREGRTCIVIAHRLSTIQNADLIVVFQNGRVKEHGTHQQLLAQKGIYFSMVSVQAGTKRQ

MDR1 (P-gp) [3] = biological target: T1, MDR1 (P-gp); assay: MDR1 transfected MDCKII canine Mdr1 knockout permeability/efflux, Assay 7; settings: dog, MDCK-MDR1
Procedure: Both MDR1 transfected LLC-PK1 (Assay 6) and MDR1 transfected MDCKII canine Mdr1 knockout cells (Assay 7) were cultured and plated according to manufacturer's recommendations with the exception that the passage media for the MDR1 transfected LLC-PK1 cell line contained only 2% fetal bovine serum so as to extend passage time out to seven days.
Both positive and negative controls were used to assess functionality of P-gp or BCRP efflux in the assays. Stock solutions for assay controls and the test article were prepared in DMSO for final test concentration of 1 μM. Final organic concentration in the assay was 1%. All dosing solutions contained 10 μM lucifer yellow to monitor MDCKII cell monolayer integrity.
For the apical to basolateral determination (A to B), 75 μL of the test article in transport buffer were added to the apical side of the individual transwells and 250 μL of basolateral media, without compound or lucifer yellow, were added to each well. For the basolateral to apical determination (B to A), 250 μL of test article in transport buffer were added to each well and 75 μL transport buffer, without compound or lucifer yellow, were added to each transwell. All tests were performed in triplicate, and each compound was tested for both apical to basolateral and basolateral to apical transport. The plates were incubated for 2 hours on a Lab-Line Instruments Titer Orbital Shaker (VWR, West Chester, PA) at 50 rpm and 37° C. with 5% CO2. All culture plates were removed from the incubator, 50 μL of media were removed from the apical and basolateral portion of each well, and added to 150 μL of 1 μM labetalol in 2:1 acetonitrile (ACN): H2O, v/v.
The plates were read using a Molecular Devices (Sunnyvale, CA) Gemini Fluorometer to evaluate the lucifer yellow concentrations at excitation/emission wavelengths of 425/535 nm. These values were accepted when found to be below 2% for apical to basolateral and 5% basolateral to apical flux across the MDR1-transfected LLC-PK1 or BCRP-transfected MDCKII cell monolayers. The plates were sealed, and the contents of each well analyzed by LC MS/MS. The compound concentrations were determined from the ratio of the peak areas of the compound to the internal standard (labetalol) in comparison to the dosing solution.
A MDS Sciex API 4000 (Applied Biosystems, Foster City, CA) mass spectrometer was used for detection of the analytes in the ion spray positive mode. Analyte responses were measured by multiple reaction monitoring (“MRM”) of transitions unique to each compound (the protonated precursor ion and selected product ions for each test article and m/z 329 to m/z 162 for labetalol, the internal standard.
The total run time, including re-equilibration, for a single injection was 1.2 minutes. […] The total run time, including re-equilibration, for a single injection was 0.61 minutes.
An efflux ratio is calculated from the mean apical to basolateral (A-B) Papp data and basolateral to apical (B-A) Papp data: Efflux ratio=Papp(B−A)/Papp(A−B)

[4] = biological target: ErbB2 insYVMA (HER2-YVMA, SEQ ID NO: 2) (Homo sapiens, UniProt P04626, INS775YVMA/P1170A); assay: biochemical; settings: ErbB2 insYVMA enzyme assay; read-out: Assay 1 IC50
Sequence of ErbB2 insYVMA (HER2-YVMA, SEQ ID NO: 2) (P04626 with tags, fused parts or gaps INS775YVMA/P1170A limits assumed): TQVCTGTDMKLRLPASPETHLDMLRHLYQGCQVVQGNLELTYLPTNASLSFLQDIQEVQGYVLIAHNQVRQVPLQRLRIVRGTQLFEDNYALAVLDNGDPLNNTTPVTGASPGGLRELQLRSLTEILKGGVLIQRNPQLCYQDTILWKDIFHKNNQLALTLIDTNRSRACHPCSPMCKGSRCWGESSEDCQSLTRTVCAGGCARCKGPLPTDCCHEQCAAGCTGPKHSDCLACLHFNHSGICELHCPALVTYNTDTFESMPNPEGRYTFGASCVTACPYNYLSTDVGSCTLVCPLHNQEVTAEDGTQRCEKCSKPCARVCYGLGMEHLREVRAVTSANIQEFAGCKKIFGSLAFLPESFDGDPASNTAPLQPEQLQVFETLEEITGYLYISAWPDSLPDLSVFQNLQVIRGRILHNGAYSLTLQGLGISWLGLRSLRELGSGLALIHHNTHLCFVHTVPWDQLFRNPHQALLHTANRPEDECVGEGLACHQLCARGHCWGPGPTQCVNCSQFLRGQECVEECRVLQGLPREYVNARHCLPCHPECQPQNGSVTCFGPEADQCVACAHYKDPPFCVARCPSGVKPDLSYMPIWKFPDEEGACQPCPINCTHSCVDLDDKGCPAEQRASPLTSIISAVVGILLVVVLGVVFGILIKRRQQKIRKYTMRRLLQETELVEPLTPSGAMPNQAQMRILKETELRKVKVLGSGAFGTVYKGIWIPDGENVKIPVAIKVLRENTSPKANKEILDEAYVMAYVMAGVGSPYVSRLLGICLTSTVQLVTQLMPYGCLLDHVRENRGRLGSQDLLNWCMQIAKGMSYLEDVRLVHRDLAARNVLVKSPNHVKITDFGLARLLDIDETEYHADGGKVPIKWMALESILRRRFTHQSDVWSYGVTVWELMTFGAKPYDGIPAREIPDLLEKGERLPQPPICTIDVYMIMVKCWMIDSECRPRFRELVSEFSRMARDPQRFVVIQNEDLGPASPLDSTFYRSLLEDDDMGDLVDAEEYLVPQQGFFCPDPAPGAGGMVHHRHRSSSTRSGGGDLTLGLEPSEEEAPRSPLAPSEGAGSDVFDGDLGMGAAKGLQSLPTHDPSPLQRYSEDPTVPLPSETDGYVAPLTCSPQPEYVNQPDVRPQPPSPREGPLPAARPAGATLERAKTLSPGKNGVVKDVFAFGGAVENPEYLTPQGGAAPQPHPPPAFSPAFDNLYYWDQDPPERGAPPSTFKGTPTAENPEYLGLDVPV

| SMILES | IC50 (EGFR wild type (EGFR WT)) | IC50 (ErbB2 WT) | IC50 (EGFR) | IC50 [1] | efflux ratio at 2 h, 1 μM (MDR1 (P-gp) [2]) | efflux ratio at 2 h, 1 μM (MDR1 (P-gp) [3]) | IC50 [4] |
| --- | --- | --- | --- | --- | --- | --- | --- |
| CSc1ncc2ncnc(Nc3ccc(Oc4ccc5c(c4)ncn5C)c(C)c3)c2n1 [Example 1, N-(3-methyl-4-((1-methyl-1H-benzo[d]imidazol-5-yl)oxy)phenyl)-6-(methylthio)pyrimido[5,4-d]pyrimidin-4-amine] | 5 µM | 0.0411 µM | ≥ 10 µM | 0.0292 µM | 1.2 | 1.4 | 0.0193 µM |
| COc1ncc2ncnc(Nc3ccc(Oc4ccc5csnc5c4)c(C)c3)c2n1 [Example 7, N-(4-(benzo[c]isothiazol-6-yloxy)-3-methylphenyl)-6-methoxypyrimido[5,4-d]pyrimidin-4-amine 2,2,2-trifluoroacetate] | 5 µM | 0.0568 µM | 2.01 µM | 0.145 µM | 1 | 1.3 | 0.0185 µM |
| CSc1ncc2ncnc(Nc3ccc(Oc4ccc5csnc5c4)c(C)c3)c2n1 [Example 11, N-(4-(benzo[c]isothiazol-6-yloxy)-3-methylphenyl)-6-(methylthio)pyrimido[5,4-d]pyrimidin-4-amine 2,2,2-trifluoroacetate] | 5 µM | 0.0974 µM | 0.925 µM | 0.0951 µM | 0.7 | 0.7 | 0.0544 µM |
| Cc1cc(Nc2ncnc3cnc(N4CCOCC4)nc23)ccc1Oc1ccc2c(c1)ncn2C [Example 9, N-(3-methyl-4-((1-methyl-1H-benzo[d]imidazol-5-yl)oxy)phenyl)-6-morpholinopyrimido[5,4-d]pyrimidin-4-amine 2,2,2-trifluoroacetate] | 5 µM | 0.064 µM | ≥ 10 µM | 0.0049 µM | 0.8 | 1.2 | 0.0136 µM |
| COc1ncc2ncnc(Nc3ccc(Oc4ccc5c(c4)ncn5C)c(C)c3)c2n1 [Example 8, 6-methoxy-N-(3-methyl-4-((1-methyl-1H-benzo[d]imidazol-5-yl)oxy)phenyl)pyrimido[5,4-d]pyrimidin-4-amine 2,2,2-trifluoroacetate] | 5 µM | 0.0697 µM | ≥ 10 µM | 0.159 µM | 0.9 | 1 | 0.0227 µM |
| CNc1ncc2ncnc(Nc3ccc(Oc4ccc5c(c4)ncn5C)c(C)c3)c2n1 [Example 4, N2-methyl-N8-(3-methyl-4-((1-methyl-1H-benzo[d]imidazol-5-yl)oxy)phenyl)pyrimido[5,4-d]pyrimidine-2,8-diamine] | 5 µM | 0.03 µM | 4.9 µM | 0.0072 µM | 0.9 | 1.4 | 0.0089 µM |
| Cc1cc(Nc2ncnc3cnc(N(C)C)nc23)ccc1Oc1ccc2c(c1)ncn2C [Example 3, N2,N2-dimethyl-N8-(3-methyl-4-((1-methyl-1H-benzo[d]imidazol-5-yl)oxy)phenyl)pyrimido[5,4-d]pyrimidine-2,8-diamine 2,2,2-trifluoroacetate] | 5 µM | 0.0524 µM | 8.25 µM | 0.0429 µM | 1 | 1 | 0.0125 µM |
| CSc1ncc2ncnc(Nc3ccc(Oc4ccc5conc5c4)c(C)c3)c2n1 [Example 10, N-(4-(benzo[c]isoxazol-6-yloxy)-3-methylphenyl)-6-(methylthio)pyrimido[5,4-d]pyrimidin-4-amine] | 5 µM | 0.144 µM | ≥ 10 µM | 0.671 µM |  |  | 0.049 µM |
